The results in this text go back to patent US4939137A, “Ring-fused thienopyrimidinedione derivatives” (Ortho Pharmaceutical Corporation, priority 1989, dated 1990).

The test system of test [1] is spontaneously hypertensive rats (SHR). Kind of test: Antihypertensive Activity: Spontaneously Hypertensive Rat (SHR test). In kind it is in vivo, rat (male spontaneously hypertensive). The note with it: p.o. or i.v.; for SHR TEST: change in mean arterial blood pressure: dose 2.5 mpk; for change in vivo at 5 mg/kg: Rattus norvegicus, dose 5 mpk, read-out: SHR TEST: change in blood pressure (delta % of control). As for the experimental part: Mean arterial pressure and heart rate were monitored from directly cannulated animals. Compounds were administered p.o. or i.v. and blood pressure was recorded for various time intervals post dosing.
Blood pressure changes (expressed as change in control pressure and reported as delta % of control for each animal) were analyzed statistically using a one way analysis of variance with a Dunnett's test. P values less than 0.05 were considered significant.

For test [2], the target named is alpha-1 adrenergic receptor. Nature of the test: Brain Alpha-1 Radioreceptor Assay (3H-prazosin). The note with it: guinea pig brain membranes, 30 minutes, 30° C., read-out: RECEPTOR BINDING ALPHA-1 (IC50). How it is done:
Membrane fragments were prepared from the brains of mature female guinea pigs after removal of the corpus striata. The alpha-1 adrenergic receptor sites were labeled with ^3 H-prazosin. Membrane fragments, ^3 H-prazosin and an unlabeled test compound were incubated for 30 minutes at 30° C. Compound bound to the receptor site was separated from the remaining unbound radioligand by vacuum filtration. Specific binding was determined by the difference between total counts bound and counts bound in the presence of 10-^5 M phentolamine.

Test [3] concerns the target T1, 5HT2 receptor (Rattus norvegicus, UniProt P14842).
T1 construct: Membrane fragments were prepared from the frontal cortex dissected from brains obtained from female rats; from tissue; host or cells: frontal cortex, female rats
Nature of the test: Brain Serotonin 5HT2 Radioreceptor Assay (3H-ketanserin). As to conditions: rat frontal cortex membranes, 15 minutes, 37° C., read-out: RECEPTOR BINDING 5HT-2 (IC50). The class given is binding. How it is done: Membrane fragments were prepared from the frontal cortex dissected from brains obtained from female rats (~150 g). The 5HT2 sites were labeled with ^3 H-ketanserin. Membrane fragments, ^3 H-ketanserin and an unlabeled test compound were incubated for 15 minutes at 37° C. Compound bound to the receptor site was separated from the remaining unbound compound by vacuum filtration.
The ability of a nonlabeled compound to compete with ^3 H-ketanserin for binding sites was a measure of the compound's affinity for the 5HT2 receptor. Specific binding was determined by the difference between total counts bound and counts bound in the presence of 10^-6 M methysergide.
Data are presented as the IC50, the concentration of nonlabeled compound required to displace 50% of the ^3 H-ketanserin specifically bound to 5HT2 binding sites.

In test [4] the target is T2, 5HT1A receptor (Rattus norvegicus, UniProt P19327).
T2 construct: Membrane fragments were prepared from the frontal cortex dissected from brains obtained from female rats; from tissue; host or cells: frontal cortex, female rats
T2 sequence (P19327 1-422): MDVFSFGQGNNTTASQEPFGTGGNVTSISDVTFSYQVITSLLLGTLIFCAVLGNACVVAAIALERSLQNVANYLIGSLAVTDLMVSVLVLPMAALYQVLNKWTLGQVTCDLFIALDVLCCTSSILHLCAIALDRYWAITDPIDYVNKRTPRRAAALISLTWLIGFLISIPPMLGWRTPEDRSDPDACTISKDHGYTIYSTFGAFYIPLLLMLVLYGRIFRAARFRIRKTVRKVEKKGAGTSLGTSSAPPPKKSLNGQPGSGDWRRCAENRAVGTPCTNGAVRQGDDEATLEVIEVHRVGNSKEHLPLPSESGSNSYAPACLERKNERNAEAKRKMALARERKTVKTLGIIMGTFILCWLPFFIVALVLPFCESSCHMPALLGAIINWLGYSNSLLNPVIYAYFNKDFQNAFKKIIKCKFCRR
Kind of test: Brain Serotonin 5HT1A Radioreceptor Assay (3H-80H-DPAT). The class given is binding. The note with it: rat frontal cortex membranes, 10 minutes, 37° C., read-out: RECEPTOR BINDING 5HT-1A (IC50). As for the experimental part:
Membrane fragments were prepared from the frontal cortex dissected from brains obtained from female rats (~150 g). The 5HT1A sites were labeled with ^3 H-80H-dipropylaminotetralin (^3 H-80H-DPAT). Membrane fragments, ^3 H-80H-DPAT and an unlabeled test compound were incubated for 10 minutes at 37° C. The tubes were then placed in an ice bath for an additional 10 minutes. Compound bound to the receptor site was separated from the remaining unbound compound by vacuum filtration.
The ability of a nonlabeled compound to compete with ^3 H-80H-DPAT for binding sites was a measure of the compound's affinity for the 5HT1A receptor. Specific binding was determined by the difference between total counts bound and counts bound in the presence of 10^-5 M serotonin.
Data are presented at the IC50, the concentration of nonlabeled compound required to displace 50% of the ^3 H-80H-DPAT specifically bound to 5HT1A binding sites.

For test [5], the system named is alpha adrenergic receptor. Nature of the test: Alpha-1 Adrenergic Blockage: Inhibition of Phenylephrine-Induced Increases in Blood Pressure in the Anesthetized Dog. The class given is in vivo. As to conditions: i.v., phenylephrine 10 μg/kg. The source says: Dogs were anesthetized and bilaterally vagotomized. A femoral artery and vein were cannulated for detection of diastolic blood pressure and drug administration, respectively. Percent inhibition of alpha adrenergic receptor antagonism was quantified by determining dose-response (increase in diastolic pressure) relationship of phenylephrine before and after various doses of the antagonist.

T1 sequence (P14842 whole entry, the tested form may be a part): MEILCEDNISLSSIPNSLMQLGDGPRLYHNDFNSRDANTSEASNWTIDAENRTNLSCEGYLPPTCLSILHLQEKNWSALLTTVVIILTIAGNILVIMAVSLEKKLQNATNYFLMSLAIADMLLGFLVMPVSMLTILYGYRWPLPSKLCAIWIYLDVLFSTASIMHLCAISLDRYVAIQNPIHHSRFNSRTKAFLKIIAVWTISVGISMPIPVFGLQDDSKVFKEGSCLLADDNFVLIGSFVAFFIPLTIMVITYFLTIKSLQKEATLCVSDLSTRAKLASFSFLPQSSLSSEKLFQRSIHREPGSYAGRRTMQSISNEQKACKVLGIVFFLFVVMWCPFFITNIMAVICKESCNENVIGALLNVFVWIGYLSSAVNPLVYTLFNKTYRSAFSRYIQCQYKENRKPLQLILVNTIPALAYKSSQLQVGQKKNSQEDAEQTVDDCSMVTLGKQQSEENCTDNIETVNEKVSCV

Consider `COc1ccccc1N1CCN(CCn2c(=O)c3csc4c3n(c2=O)CCC4=O)CC1` [Example 1, 3,4,5,7,8,9-Hexahydro-4-[2-[4-(2-methoxyphenyl)piperazin-1-yl]ethyl]thieno[4,3,2-de]pyrido[1,2c]pyrimidine-3,5,9-trione], for which, in test [1], the “SHR TEST: change in mean arterial blood pressure” value (“SHR TEST: change” below) was -59 mm Hg. For the same compound, the IC50 in test [2] was found to be 18 nM; in test [3], 6500 nM; in test [4], 25 nM. Also, in test [5] (dose 0.03 mpk), the “% INHIB OF PHENYLEPHRINE RESPONSE” value is 86%.
Take `Cc1ccccc1N1CCN(CCn2c(=O)c3csc4c3n(c2=O)CCC4=O)CC1` [Example 2, 3,4,5,7,8,9-Hexahydro-4-[2-[4-(2-methylphenyl)piperazin-1-yl]ethyl]thieno[4,3,2-de]pyrido[1,2-c]pyrimidine-3,5,9-trione]: the change in vivo at 5 mg/kg in test [1] was -33%. In addition, the “% INHIB OF PHENYLEPHRINE RESPONSE” value in test [5] (dose 0.03 mpk) was determined as 83%.
For `COc1ccccc1N1CCN(CCn2c(=O)c3csc4c3n(c2=O)CCC4O)CC1` (stereo not drawn) [Example 21, 3,4,5,7,8,9-Hexahydro-9-hydroxy-4-[2-[4-(2-methoxyphenyl)piperazin-1-yl]ethyl]thieno[4,3,2-de]pyrido[1,2-c]pyrimidine-3,5-dione], in that order: -24.7% and 96%.
Consider `CON=C1CCn2c(=O)n(CCN3CCN(c4ccccc4OC)CC3)c(=O)c3csc1c32` [Example 26, 3,4,5,7,8,9-Hexahydro-9-methoxyimino-4-[2-[4-(2-methoxyphenyl)piperazin-1-yl]ethyl]-thieno[4,3,2-de]pyrido[1,2-c]pyrimidine-3,5-dione], for which the IC50 in test [2] was 40 nM; in test [3] it was 2000 nM; in test [4] it was 0.72 nM. The “% INHIB OF PHENYLEPHRINE RESPONSE” value in test [5] (dose 0.03 mpk) turned out to be 72%.
With `COc1ccccc1N1CCN(CCn2c(=O)c3csc4c3n(c2=O)CC=C4)CC1` [Example 24, 3,4,5,7-Tetrahydro-4-[2-[4-(2-methoxyphenyl)piperazin-1-yl]ethyl]thieno[4,3,2-de]pyrido[1,2-c]pyrimidine-3,5-dione], the “SHR TEST: change” value in test [1] was -59.0 mm Hg. The IC50 was determined as 23 nM in test [2], 2000 nM in test [3] and 120 nM in test [4]. The “% INHIB OF PHENYLEPHRINE RESPONSE” value in test [5] (dose 0.03 mpk) stood at 98%.
For `COc1ccccc1N1CCN(CCn2c(=O)c3csc4c3n(c2=O)CCNC4=O)CC1` [Example 25], in test [1], the “SHR TEST: change” value is given as -58.0 mm Hg. For the same compound, the IC50 came out at 45 nM in test [2], 2000 nM in test [3] and 48 nM in test [4]. Moreover, the “% INHIB OF PHENYLEPHRINE RESPONSE” value in test [5] (dose 0.003 mpk) is given as 94%.
Consider `COc1ccccc1N1CCN(CCn2c(=O)c3csc4c3n(c2=O)CCC4OC(C)=O)CC1` (stereo not drawn) [Example 30, 9-Acetyloxy-3,4,5,7,8,9-hexahydro-4-[2-[4-(2-methoxyphenyl)piperazin-1-yl]ethyl]thieno[4,3,2-de]pyrido[1,2-c]pyrimidine-3,5-dione], for which, in test [1], the change in vivo at 5 mg/kg was -33.2%. For the same compound, in test [5] (dose 0.03 mpk), the “% INHIB OF PHENYLEPHRINE RESPONSE” value is recorded as 100%.
As for `COc1ccccc1N1CCN(CCn2c(=O)c3csc4c3n(c2=O)CCC4OC(=O)c2ccccc2)CC1` (stereo not drawn) [Example 35, 9-Benzoyloxy-3,4,5,7,8,9-hexahydro-4-[2-[4-(2-methoxyphenyl)piperazin-1-yl]ethyl]thieno[4,3,2-de]pyrido[1,2-c]pyrimidine-3,5-dione], in test [1], the change in vivo at 5 mg/kg was -16.6%. The IC50 in test [2] came to 0.015 nM; in test [3], 1500 nM; in test [4], 130 nM. The “% INHIB OF PHENYLEPHRINE RESPONSE” value in test [5] (dose 0.03 mpk) was determined as 89%.

Usually IC50 stands for the point on the concentration scale where inhibition reaches its midpoint.
